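48-hour exposure; five concentrations; linearly interpolated endpoints. Abbreviation: GI50, concentration required for 50% inhibition of growth. TGI: concentration producing complete growth inhibition.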
How the values were obtained:
Assay in all cases: NCI tumour cell line growth inhibition, 48 h
SK-MEL-28 melanoma = tested on: SK-MEL-28 melanoma
CCRF-CEM leukemia = tested on: CCRF-CEM leukemia
TK-10 renal = tested on: TK-10 renal
SNB-19 CNS = tested on: SNB-19 CNS
LOX IMVI melanoma = tested on: LOX IMVI melanoma
SN12C renal = tested on: SN12C renal
MALME-3M melanoma = tested on: MALME-3M melanoma
UO-31 renal = tested on: UO-31 renal
MDA-MB-435 = tested on: MDA-MB-435
NCI-H522 lung = tested on: NCI-H522 lung

Row | SMILES | TGI (SK-MEL-28 melanoma) [µM] | TGI (CCRF-CEM leukemia) [µM] | TGI (TK-10 renal) [µM] | TGI (SNB-19 CNS) [µM] | TGI (LOX IMVI melanoma) [µM] | TGI (SN12C renal) [µM] | TGI (MALME-3M melanoma) [µM] | TGI (UO-31 renal) [µM] | TGI (MDA-MB-435) [µM] | TGI (NCI-H522 lung) [µM] | GI50 (SK-MEL-28 melanoma) [µM] | GI50 (MDA-MB-435) [µM] | GI50 (CCRF-CEM leukemia) [µM] | GI50 (TK-10 renal) [µM] | GI50 (SNB-19 CNS) [µM] | GI50 (LOX IMVI melanoma) [µM] | GI50 (NCI-H522 lung) [µM] | GI50 (SN12C renal) [µM] | GI50 (MALME-3M melanoma) [µM] | GI50 (UO-31 renal) [µM]
1 | N#CC12Cc3cc4c(cc3-c3cccc(c31)CCN2C(=O)c1ccccc1)OCO4 (stereo unspecified) | > 100 | > 100 | > 100 | > 100 | > 100 | > 100 | > 100 | > 100 | – | – | – | – | – | – | – | – | – | – | – | –
2 | Clc1ccccc1/C=c1\nc(-c2ccccc2)n2c1nc1ccccc12 | > 100 | > 100 | > 100 | > 100 | > 100 | > 100 | > 100 | > 100 | > 100 | – | – | – | – | – | – | – | – | – | – | –
3 | CC(C)(C)OC(=O)NC(CCCCNC(=O)OCc1ccccc1)C(=O)NCCNc1ccc(NCCNC(=O)C(CCCCNC(=O)OCc2ccccc2)NC(=O)OC(C)(C)C)c2c1C(=O)c1ccccc1C2=O (stereo unspecified) | > 100 | > 100 | > 100 | 45.9 | > 100 | > 100 | > 100 | > 100 | > 100 | 93.3 | – | – | – | – | – | – | – | – | – | –
4 | COc1ccc(C(=O)C2=NON3OC23C(=O)c2ccc(OC)cc2)cc1 (stereo unspecified) | 32.7 | – | 34.1 | 33.7 | 11.4 | 28.6 | 25.7 | 28 | – | 3.68 | – | – | – | – | – | – | – | – | – | –
5 | O=C(O[C@@H](/C=C/c1ccccc1)P1(=O)N(Cc2ccccc2)[C@H]2CCCC[C@@H]2N1Cc1ccccc1)c1ccccc1 | > 100 | 17.9 | 37 | > 100 | 14 | 6.74 | 31.6 | 11.7 | > 100 | > 100 | – | – | – | – | – | – | – | – | – | –
6 | O=c1[nH]c(Nc2ccc(Cl)c(C(F)(F)F)c2)nc2nc[nH]c12 | – | 45.4 | > 100 | > 100 | 81.7 | > 100 | > 100 | > 100 | > 100 | 34.3 | – | – | – | – | – | – | – | – | – | –
7 | CN(C)c1ccc(C=Nc2ccc(-c3nc4ccccc4[nH]3)cc2)cc1 | > 100 | > 100 | > 100 | > 100 | > 100 | > 100 | > 100 | > 100 | > 100 | > 100 | – | – | – | – | – | – | – | – | – | –
8 | COCC1CCCN1c1ccc(C=N/C(C#N)=C(\N)C#N)cc1 (stereo unspecified) | > 100 | > 100 | > 100 | > 100 | > 100 | 84.5 | > 100 | > 100 | > 100 | 56.2 | > 100 | > 100 | 3.22 | 49.2 | 36.7 | > 100 | 15.8 | 4.85 | 7.75 | 4.98
9 | OCc1cn(C(c2ccccc2)(c2ccccc2)c2ccccc2)cn1 | > 100 | > 100 | > 100 | > 100 | > 100 | > 100 | – | > 100 | > 100 | > 100 | – | – | – | – | – | – | – | – | – | –
10 | c1ccc(-c2nnn3c2NC2=C(CCCC2)C3c2ccccc2)cc1 (stereo unspecified) | – | 31.1 | – | > 100 | 27 | 51.1 | – | 34.1 | 20.8 | 19.9 | – | – | – | – | – | – | – | – | – | –
11 | COc1c(CC=C(C)C)c(O)c(C(CC(C)C)c2c(O)c3c(c(C(C)=O)c2O)OC(C(C)(C)O)C3)c(O)c1C(C)=O (stereo unspecified) | > 12.5 | 9.74 | – | > 12.5 | > 12.5 | > 12.5 | > 12.5 | > 12.5 | > 12.5 | > 12.5 | – | – | – | – | – | – | – | – | – | –
12 | OC(c1ccccc1)(c1ccccc1)c1nccc2ccccc12 | > 100 | 95.5 | > 100 | > 100 | 44.3 | > 100 | 68 | > 100 | > 100 | 40.8 | – | – | – | – | – | – | – | – | – | –
13 | CC(O)(Cc1ccccc1C#N)Cc1ccccc1C#N | > 100 | – | > 100 | > 100 | > 100 | > 100 | > 100 | – | > 100 | > 100 | – | – | – | – | – | – | – | – | – | –
14 | CC(=O)OC1CC[C@@]2(C)C(=CC[C@@H]3[C@@H]2CC[C@]2(C)Nc4nn(S(C)(=O)=O)cc4C[C@@H]32)C1 (stereo partly specified) | > 100 | 38.5 | – | > 100 | – | > 100 | 78.6 | > 100 | 50.1 | > 100 | – | – | – | – | – | – | – | – | – | –
15 | Cc1coc2c1C[C@@]1(C)[C@H](CCC[C@@H]1C)[C@H]2O | > 100 | > 100 | > 100 | > 100 | > 100 | 55.5 | 44.7 | – | 92.1 | 90.5 | – | – | – | – | – | – | – | – | – | –
16 | COCCNCc1ccc(-c2cc3nccc(Oc4ccc(NC(=S)NC(=O)Cc5ccc(F)cc5)cc4F)c3s2)nc1 | – | – | 5.08 | – | – | – | – | – | – | 6.5 | – | – | – | 2.45 | – | – | 2.51 | – | – | –
17 | O=C(O)c1ccc(C(=O)c2ccccc2C(=O)O)cc1C(=O)O | > 100 | > 100 | > 100 | > 100 | > 100 | > 100 | > 100 | > 100 | > 100 | > 100 | – | – | – | – | – | – | – | – | – | –
18 | CCOC(=O)C(/C(=N/S(=O)(=O)c1cc(C)c(Cl)cc1[S-])[n+]1ccc(N(C)C)cc1)=C(/O)c1ccc([N+](=O)[O-])cc1 | 83.5 | 87.2 | 58.7 | – | – | > 100 | 40.5 | > 100 | > 100 | 34.6 | – | – | – | – | – | – | – | – | – | –
